The results in this text go back to ChEMBL document CHEMBL5303766, “Data for DCP probe FHT-2344” (2022).

Activity calls are given as the source filed them. The calls are words filed in the database; no cut-off is given here.

Test [1] has as its target Cyclin-dependent kinase 2 (Homo sapiens) (UniProt P24941). The test can be described thus: CDK2 SGC Tm panel (DSF). As to conditions: for ΔTm: Compound concentration 10.0 uM.
In test [2] the target is Ribosomal protein S6 kinase alpha-5 (Homo sapiens) (UniProt O75582). Description: RPS6KA5 SGC Tm panel (DSF). As to conditions: for ΔTm: Compound concentration 10.0 uM.
Test [3] concerns the target Casein kinase II subunit alpha (Homo sapiens) (UniProt P68400). The test can be described thus: CSNK2A1A SGC Tm panel (DSF). As to conditions: for ΔTm: Compound concentration 10.0 uM.
Test [4] has as its target 5-hydroxytryptamine receptor 6 (Homo sapiens) (UniProt P50406). As to conditions: Compound concentration 10.0 uM.
Test [5] concerns the target T1, Ephrin type-B receptor 1 (Homo sapiens) (UniProt P54762).
T1 sequence (whole entry): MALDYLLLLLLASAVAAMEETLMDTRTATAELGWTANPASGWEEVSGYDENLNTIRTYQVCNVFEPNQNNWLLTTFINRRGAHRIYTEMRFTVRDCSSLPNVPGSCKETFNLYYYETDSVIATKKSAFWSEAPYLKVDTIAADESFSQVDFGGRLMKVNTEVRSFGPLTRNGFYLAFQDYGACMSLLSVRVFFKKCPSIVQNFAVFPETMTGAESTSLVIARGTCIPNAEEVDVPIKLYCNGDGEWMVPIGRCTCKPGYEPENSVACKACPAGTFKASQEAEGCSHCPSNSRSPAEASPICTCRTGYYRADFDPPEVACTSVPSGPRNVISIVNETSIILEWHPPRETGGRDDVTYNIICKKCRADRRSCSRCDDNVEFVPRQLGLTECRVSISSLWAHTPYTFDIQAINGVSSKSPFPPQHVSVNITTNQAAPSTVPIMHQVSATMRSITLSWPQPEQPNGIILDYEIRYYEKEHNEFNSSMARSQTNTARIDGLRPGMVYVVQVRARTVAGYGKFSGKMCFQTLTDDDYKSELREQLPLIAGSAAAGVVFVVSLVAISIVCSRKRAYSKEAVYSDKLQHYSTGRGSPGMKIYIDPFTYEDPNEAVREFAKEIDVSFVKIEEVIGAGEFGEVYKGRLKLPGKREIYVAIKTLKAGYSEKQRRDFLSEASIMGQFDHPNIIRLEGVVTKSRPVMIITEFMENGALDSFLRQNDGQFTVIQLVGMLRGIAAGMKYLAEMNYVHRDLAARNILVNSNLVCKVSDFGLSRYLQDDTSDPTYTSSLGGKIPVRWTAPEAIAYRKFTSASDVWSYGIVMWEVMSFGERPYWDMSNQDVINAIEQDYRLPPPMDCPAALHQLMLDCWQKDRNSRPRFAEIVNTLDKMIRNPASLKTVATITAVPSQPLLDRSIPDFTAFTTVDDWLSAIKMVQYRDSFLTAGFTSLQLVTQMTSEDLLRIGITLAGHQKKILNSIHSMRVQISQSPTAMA
The test can be described thus: EPHB1 SGC Tm panel (DSF). As to conditions: for ΔTm: Compound concentration 10.0 uM.

Test [6] addresses Muscarinic acetylcholine receptor M3 (Homo sapiens) (UniProt P20309). The settings on record: Compound concentration 10.0 uM.
Test [7] has as its target Cell division control protein 42 homolog (Homo sapiens) (UniProt P60953). Description: CDC42 SGC Tm panel (DSF). The settings on record: for ΔTm: Compound concentration 10.0 uM.
The target in test [8] is T2, Serine/threonine-protein kinase PLK4 (Homo sapiens) (UniProt O00444).
T2 sequence (whole entry): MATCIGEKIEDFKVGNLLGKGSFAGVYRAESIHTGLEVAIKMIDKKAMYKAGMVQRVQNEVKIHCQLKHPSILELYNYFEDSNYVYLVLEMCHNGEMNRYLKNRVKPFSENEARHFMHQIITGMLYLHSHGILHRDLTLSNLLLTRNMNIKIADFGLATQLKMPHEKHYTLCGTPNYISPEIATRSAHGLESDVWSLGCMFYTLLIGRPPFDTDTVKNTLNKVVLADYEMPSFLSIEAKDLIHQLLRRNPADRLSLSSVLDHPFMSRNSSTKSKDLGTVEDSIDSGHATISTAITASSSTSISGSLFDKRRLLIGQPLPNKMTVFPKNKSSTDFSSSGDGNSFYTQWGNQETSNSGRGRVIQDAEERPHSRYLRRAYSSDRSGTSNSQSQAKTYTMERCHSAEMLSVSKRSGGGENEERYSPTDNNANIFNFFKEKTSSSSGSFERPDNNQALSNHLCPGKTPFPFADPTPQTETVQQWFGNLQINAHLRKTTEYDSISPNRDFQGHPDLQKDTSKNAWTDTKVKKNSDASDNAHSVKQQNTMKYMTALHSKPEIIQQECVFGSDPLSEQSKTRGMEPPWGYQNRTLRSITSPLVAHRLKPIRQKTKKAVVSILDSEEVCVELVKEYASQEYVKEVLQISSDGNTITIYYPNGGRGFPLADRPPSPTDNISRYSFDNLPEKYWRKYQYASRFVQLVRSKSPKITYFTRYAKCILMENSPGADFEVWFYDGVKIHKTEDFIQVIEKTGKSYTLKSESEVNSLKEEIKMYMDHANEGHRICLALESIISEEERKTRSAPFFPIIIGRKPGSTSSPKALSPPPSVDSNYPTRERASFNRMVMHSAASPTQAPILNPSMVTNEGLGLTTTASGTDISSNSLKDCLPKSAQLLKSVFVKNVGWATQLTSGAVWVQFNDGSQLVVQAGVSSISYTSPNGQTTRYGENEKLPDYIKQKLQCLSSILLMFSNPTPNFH
Description: PLK4 SGC Tm panel (DSF). The settings on record: for ΔTm: Compound concentration 10.0 uM.

Test [9] concerns the target 5-hydroxytryptamine receptor 3A (Homo sapiens) (UniProt P46098). The settings on record: Compound concentration 10.0 uM.
Test [10] addresses Dual specificity mitogen-activated protein kinase kinase 1 (Homo sapiens) (UniProt Q02750). The test can be described thus: MAP2K1 SGC Tm panel (DSF). As to conditions: for ΔTm: Compound concentration 10.0 uM.
For test [11], the target named is SWI/SNF-related matrix-associated actin-dependent regulator of chromatin subfamily A member 2 (Homo sapiens, UniProt P51531). Description: Measurement of the ATPase catalytic activity using the ADP-Glo detection (SMARCA2). It is filed as functional. On the technique in general: ADP-Glo first removes unused ATP, then detects ADP through luciferase.
In test [12] the target is Ephrin type-A receptor 7 (Homo sapiens) (UniProt Q15375). Description: EPHA7 SGC Tm panel (DSF). The settings on record: for ΔTm: Compound concentration 10.0 uM.
Ephrin type-A receptor 7 (Homo sapiens), sequence (Q15375 28-998 limits assumed): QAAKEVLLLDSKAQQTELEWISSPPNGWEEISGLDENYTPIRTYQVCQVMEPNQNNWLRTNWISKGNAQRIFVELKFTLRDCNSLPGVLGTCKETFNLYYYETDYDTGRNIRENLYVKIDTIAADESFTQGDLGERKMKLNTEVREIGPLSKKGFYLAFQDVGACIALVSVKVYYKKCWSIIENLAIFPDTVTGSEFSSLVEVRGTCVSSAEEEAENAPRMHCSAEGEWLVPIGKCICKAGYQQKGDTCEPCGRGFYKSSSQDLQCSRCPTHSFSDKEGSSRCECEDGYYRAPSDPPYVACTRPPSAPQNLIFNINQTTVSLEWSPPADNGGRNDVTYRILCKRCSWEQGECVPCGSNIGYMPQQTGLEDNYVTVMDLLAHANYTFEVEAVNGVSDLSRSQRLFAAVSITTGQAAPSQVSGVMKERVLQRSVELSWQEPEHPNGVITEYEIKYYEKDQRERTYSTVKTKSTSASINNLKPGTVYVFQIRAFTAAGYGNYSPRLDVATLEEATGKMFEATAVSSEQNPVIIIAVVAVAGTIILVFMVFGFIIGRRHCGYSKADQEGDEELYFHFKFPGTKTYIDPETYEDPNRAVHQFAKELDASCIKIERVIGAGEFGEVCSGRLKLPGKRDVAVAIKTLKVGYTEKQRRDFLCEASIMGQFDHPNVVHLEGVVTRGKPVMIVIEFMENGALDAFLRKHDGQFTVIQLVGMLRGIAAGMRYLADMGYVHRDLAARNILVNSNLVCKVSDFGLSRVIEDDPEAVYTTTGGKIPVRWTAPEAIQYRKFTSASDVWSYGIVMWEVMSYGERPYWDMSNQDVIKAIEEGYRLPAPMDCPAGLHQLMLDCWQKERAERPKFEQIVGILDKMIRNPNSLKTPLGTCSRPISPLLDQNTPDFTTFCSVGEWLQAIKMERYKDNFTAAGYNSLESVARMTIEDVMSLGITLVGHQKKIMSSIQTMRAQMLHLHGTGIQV

Dual specificity mitogen-activated protein kinase kinase 1 (Homo sapiens), sequence (Q02750 whole entry): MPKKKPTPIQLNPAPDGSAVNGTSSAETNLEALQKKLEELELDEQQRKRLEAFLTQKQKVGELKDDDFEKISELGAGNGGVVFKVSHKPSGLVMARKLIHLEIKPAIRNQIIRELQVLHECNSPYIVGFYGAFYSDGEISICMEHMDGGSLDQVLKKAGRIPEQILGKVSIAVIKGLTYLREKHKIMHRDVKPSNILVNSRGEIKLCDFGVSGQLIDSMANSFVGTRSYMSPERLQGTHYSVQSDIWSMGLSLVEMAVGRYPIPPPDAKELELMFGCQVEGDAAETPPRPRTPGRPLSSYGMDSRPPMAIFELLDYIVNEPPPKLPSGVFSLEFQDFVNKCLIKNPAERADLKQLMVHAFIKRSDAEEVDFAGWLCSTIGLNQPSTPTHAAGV
Casein kinase II subunit alpha (Homo sapiens), sequence (P68400 whole entry, looked up): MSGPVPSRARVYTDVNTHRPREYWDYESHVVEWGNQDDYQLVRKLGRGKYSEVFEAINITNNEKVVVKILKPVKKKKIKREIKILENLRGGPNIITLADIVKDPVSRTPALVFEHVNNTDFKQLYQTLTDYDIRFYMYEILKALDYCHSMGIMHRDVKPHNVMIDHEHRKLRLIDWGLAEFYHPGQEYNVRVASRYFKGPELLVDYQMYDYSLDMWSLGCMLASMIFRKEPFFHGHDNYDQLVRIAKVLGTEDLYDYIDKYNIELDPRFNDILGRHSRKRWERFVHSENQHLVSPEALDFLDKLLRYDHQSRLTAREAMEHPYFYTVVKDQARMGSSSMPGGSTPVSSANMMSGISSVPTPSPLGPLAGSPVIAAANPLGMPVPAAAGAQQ
Ribosomal protein S6 kinase alpha-5 (Homo sapiens), sequence (O75582 whole entry, looked up): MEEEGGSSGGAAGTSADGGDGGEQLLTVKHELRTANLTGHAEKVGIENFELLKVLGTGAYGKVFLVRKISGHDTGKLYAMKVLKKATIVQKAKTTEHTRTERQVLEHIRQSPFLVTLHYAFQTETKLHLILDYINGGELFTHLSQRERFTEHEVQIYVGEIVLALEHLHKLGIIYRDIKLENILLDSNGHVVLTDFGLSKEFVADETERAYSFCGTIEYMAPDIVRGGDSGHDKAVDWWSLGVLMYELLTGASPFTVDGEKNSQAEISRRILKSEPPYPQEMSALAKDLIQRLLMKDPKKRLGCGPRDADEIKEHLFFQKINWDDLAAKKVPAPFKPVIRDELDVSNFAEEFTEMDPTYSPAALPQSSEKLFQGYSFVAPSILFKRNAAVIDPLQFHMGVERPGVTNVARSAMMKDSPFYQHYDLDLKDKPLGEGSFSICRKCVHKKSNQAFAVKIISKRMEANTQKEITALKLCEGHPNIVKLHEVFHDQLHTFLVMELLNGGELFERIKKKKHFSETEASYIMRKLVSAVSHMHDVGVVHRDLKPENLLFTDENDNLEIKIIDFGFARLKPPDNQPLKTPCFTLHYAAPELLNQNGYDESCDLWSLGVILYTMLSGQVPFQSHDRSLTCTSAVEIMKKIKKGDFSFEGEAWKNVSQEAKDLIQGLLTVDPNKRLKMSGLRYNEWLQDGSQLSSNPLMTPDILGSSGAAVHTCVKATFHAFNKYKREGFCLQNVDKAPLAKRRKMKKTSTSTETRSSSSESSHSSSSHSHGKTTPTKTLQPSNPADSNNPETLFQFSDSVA
Cell division control protein 42 homolog (Homo sapiens), sequence (P60953 whole entry, looked up): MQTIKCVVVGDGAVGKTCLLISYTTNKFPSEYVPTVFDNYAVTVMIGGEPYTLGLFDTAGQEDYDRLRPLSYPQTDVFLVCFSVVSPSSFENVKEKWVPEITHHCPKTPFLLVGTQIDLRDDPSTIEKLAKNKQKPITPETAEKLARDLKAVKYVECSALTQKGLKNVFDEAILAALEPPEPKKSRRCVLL
Muscarinic acetylcholine receptor M3 (Homo sapiens), sequence (P20309 whole entry, looked up): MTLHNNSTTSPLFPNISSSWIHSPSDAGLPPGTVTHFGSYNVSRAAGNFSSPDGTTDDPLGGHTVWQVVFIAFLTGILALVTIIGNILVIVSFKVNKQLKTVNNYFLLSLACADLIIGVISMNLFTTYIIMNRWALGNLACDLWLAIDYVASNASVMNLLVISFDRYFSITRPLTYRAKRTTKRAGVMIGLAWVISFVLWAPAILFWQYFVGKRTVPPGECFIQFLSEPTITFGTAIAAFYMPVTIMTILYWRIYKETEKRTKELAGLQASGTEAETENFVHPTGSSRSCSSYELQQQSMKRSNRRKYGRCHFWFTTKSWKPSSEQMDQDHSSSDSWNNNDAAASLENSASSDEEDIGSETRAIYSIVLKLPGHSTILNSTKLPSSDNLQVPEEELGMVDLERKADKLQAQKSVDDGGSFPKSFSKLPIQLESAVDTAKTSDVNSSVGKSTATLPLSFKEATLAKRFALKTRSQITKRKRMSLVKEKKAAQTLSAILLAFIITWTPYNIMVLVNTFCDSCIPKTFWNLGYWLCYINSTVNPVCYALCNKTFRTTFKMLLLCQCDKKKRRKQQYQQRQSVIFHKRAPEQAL
5-hydroxytryptamine receptor 3A (Homo sapiens), sequence (P46098 whole entry): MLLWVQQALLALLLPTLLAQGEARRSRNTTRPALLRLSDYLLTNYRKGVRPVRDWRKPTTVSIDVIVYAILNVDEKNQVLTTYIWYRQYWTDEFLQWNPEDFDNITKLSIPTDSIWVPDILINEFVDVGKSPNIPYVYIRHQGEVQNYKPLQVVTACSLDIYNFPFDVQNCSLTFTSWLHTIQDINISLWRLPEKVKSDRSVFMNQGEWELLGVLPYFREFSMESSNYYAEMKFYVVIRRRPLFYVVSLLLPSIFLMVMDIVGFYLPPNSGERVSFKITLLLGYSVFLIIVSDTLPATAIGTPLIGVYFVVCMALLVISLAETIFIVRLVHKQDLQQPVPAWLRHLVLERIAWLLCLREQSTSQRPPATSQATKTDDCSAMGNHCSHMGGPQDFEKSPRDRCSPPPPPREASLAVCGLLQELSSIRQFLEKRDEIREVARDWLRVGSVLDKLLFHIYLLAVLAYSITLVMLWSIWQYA
5-hydroxytryptamine receptor 6 (Homo sapiens), sequence (P50406 whole entry): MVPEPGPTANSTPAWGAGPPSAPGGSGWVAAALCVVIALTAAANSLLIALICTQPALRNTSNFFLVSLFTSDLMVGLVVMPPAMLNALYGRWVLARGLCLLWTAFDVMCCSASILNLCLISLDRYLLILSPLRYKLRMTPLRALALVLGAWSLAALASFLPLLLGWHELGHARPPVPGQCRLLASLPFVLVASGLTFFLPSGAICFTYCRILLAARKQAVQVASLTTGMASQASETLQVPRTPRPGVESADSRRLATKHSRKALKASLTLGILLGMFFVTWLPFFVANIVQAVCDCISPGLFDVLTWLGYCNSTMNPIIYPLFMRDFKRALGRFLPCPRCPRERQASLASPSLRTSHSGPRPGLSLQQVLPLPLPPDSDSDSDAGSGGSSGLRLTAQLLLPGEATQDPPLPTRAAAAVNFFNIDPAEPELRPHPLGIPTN

By inhibition is commonly meant the relative decrease from the control value, in per cent. The term IC50 denotes the point on the concentration scale where inhibition reaches its midpoint. Turning to `COC[C@H](NC(=O)c1ccn(S(C)(=O)=O)c1)C(=O)Nc1nc(-c2cccc(-c3ccn(C)n3)c2)cs1`, the delta Tm Staurosporine positive control in test [1] came out at 15.5; in test [2] it was 13.1; in [3], 2.85; in test [5] it was 6.19; in test [7], 2.78; in [8] it was 19.9. Moreover, the delta Tm Staurosporine positive control was determined as 5.5 in [10] and 11.5 in test [12]. The ΔTm in [1] is 0.601; in test [2], 1.16; in test [3] it was -0.131; in test [5] it was -0.318; in [7] it was 0.57; in test [8], 0.546. The ΔTm was -0.11 in test [10] and 0.976 in test [12]. In addition, the inhibition in test [4] is 8.9%; in test [6] it was 9.46%; in test [9] it was 5.62%. The 50% inhibitory concentration (IC50) in test [11] was 13.8 nM (active).
For the molecule `C[C@H](NC(=O)c1cn(C2(C#N)CC2)cn1)C(=O)Nc1nc(-c2cccc(-c3ccn(C)n3)c2)cs1`, the delta Tm Staurosporine positive control worked out at 15.5 in test [1]; 13.1 in test [2]; 2.85 in [3]; 6.19 in test [5]; 2.78 in test [7]; 19.9 in test [8]. The delta Tm Staurosporine positive control came to 5.5 in test [10] and 11.5 in test [12]. The ΔTm in test [1] was 0.352; in test [2], -0.0945; in [3], 0.0573; in [5], 0.229; in test [7], -0.206; in [8], 0.729. In addition, the figures for the ΔTm in [10] and in [12] were -0.126 and 1.13, respectively. Besides, the values for the inhibition in test [4], in test [6] and in [9] were 16.4%, 40.1% and 3.44%, respectively. For the same molecule, the IC50 in test [11] was 1880 nM (not active).
